Where two headings read alike, the source gives them in different places.
Assays:
[1] = system: Her2-positive human BT474 breast tumor cells; assay: Cytotoxicity assay (growth inhibition, CellTiter-Glo) on BT474
Procedure: (§1) Her2-positive human BT474 breast tumor cells (BT474 for short), Her2 low expression human MCF-7 breast tumor cells (MCF-7 for short), and human breast tumor cell strain MCF7-Her2 with stable-transfected Her2 outside MCF-7 (MCF-7-Her2 for short) were used (they were prepared by the methods disclosed in the literatures for preparing recombinant cells: Teemu T. Junttila, et al., Breast. Cancer Res. Treat., 2011, 128, 347 and Jeffrey J. Wallin et al., Clin. Cancer Res., 2012, 18, 3901, the contents of which are incorporated herein by reference in their entireties). The growth inhibition of tumor cells by T-CE-040 and T-CE-063 antibody drug conjugates were evaluated. BT474, MCF7-Her2 and MCF-7 were digested with 0.25% (v/v) trypsin and the cells were stripped and then suspended in 100 μL complete medium. 2,000 cells were inoculated in a 96-well plate and cultured, grew adherently overnight at 37° C., then 100 μL T-CE-040 and T-CE-063 antibody drug conjugates with different concentration gradients and the complete medium were added. After 120 hours, relative cell proliferation analysis was performed by adding 50 μL CellTiter-Glo® […] Cell Activation Reagent (CellTiter-GloB Luminescent, Promega).

[2] = system: human breast tumor cell strain MCF7-Her2 with stable-transfected Her2; assay: Cytotoxicity assay (growth inhibition, CellTiter-Glo) on MCF7-Her2
Procedure: as §1

[3] = system: Her2 low expression human MCF-7 breast tumor cells; assay: Cytotoxicity assay (growth inhibition, CellTiter-Glo) on MCF-7
Procedure: as §1

[4] = Homo sapiens, BT-474, 120 h, read-out: Cytotoxicity assay IC50 BT474, BT474 cells, 120 hours, CellTiter-Glo
[5] = Homo sapiens, 120 h, read-out: Cytotoxicity assay IC50 MCF-Her2, MCF7-Her2 cells, 120 hours, CellTiter-Glo
[6] = Homo sapiens, MCF7, 120 h, read-out: Cytotoxicity assay IC50 MCF7, MCF-7 cells, 120 hours, CellTiter-Glo
[7] = read-out: Cytotoxicity assay IC50 BT474, BT474 cells, 120 hours, CellTiter-Glo
[8] = read-out: Cytotoxicity assay IC50 MCF-Her2, MCF7-Her2 cells, 120 hours, CellTiter-Glo
[9] = read-out: Cytotoxicity assay IC50 MCF7, MCF-7 cells, 120 hours, CellTiter-Glo

Compound | IC50 [1, 4] | IC50 [2, 5] | IC50 [3, 6] | further results
COc1cc2cc(c1Cl)N(C)C(=O)C[C@H](OC(=O)[C@H](C)OCCOCCSC1CC(=O)N(CCC(=O)NCCOCCOCCC(=O)ON3C(=O)CCC3=O)C1=O)[C@]1(C)O[C@H]1[C@H](C)C1C[C@@](O)(NC(=O)O1)[C@H](OC)/C=C/C=C(\C)C2 (stereo partly drawn) [XDCE-M-001] | 456 nM | 182 nM | 330 nM | 
COc1cc2cc(c1Cl)N(C)C(=O)C[C@H](OC(=O)[C@@H](C)N(C)C(=O)CCS)C1(C)O[C@H]1[C@H](C)C1C[C@@](O)(NC(=O)O1)[C@H](OC)/C=C/C=C(\C)C2 (stereo partly drawn) [DM1, N2′-deacetyl-N2′-(3-mercapto-1-oxopropyl)maytansine, reference compound] | 21 nM | 14 nM | 16 nM | 
COc1cc2cc(c1Cl)N(C)C(=O)C[C@H](OC(=O)[C@H](C)N(C)C(=O)CCC(C)(C#N)SSC)[C@]1(C)O[C@H]1[C@H](C)[C@@H]1C[C@@](O)(NC(=O)O1)[C@H](OC)/C=C/C=C(\C)C2 (stereo partly drawn) [CE-019] | 64 nM | 57 nM | 150 nM | 
COc1cc2cc(c1Cl)N(C)C(=O)C[C@H](OC(=O)[C@H](C)N(C)[C@@H](CCSSC)C(F)(F)F)[C@]1(C)O[C@H]1[C@H](C)[C@@H]1C[C@@](O)(NC(=O)O1)[C@H](OC)/C=C/C=C(\C)C2 (single isomer, unassigned) [CE-029] | 0.85 nM | 1.7 nM | 2 nM | 
COc1cc2cc(c1Cl)N(C)C(=O)C[C@H](OC(=O)[C@H](C)OCCOCCOCCOCCOCCOCCNC(=O)CBr)[C@]1(C)O[C@H]1[C@H](C)C1C[C@@](O)(NC(=O)O1)[C@H](OC)/C=C/C=C(\C)C2 [CE-052a] | 33.1 nM | 9.8 nM | 18.4 nM | 
COc1cc2cc(c1Cl)N(C)C(=O)C[C@H](OC(=O)[C@H](C)N(C)C(CCSSC)C(F)(F)F)[C@]1(C)O[C@H]1[C@H](C)[C@@H]1C[C@@](O)(NC(=O)O1)[C@H](OC)/C=C/C=C(\C)C2 (stereo partly drawn) [CE-011] | 1.2 nM | 1.5 nM | 2.4 nM | 
COc1cc2cc(c1Cl)N(C)C(=O)C[C@H](OC(=O)[C@H](C)OCCOCCOCCN1C(=O)C=CC1=O)[C@]1(C)O[C@H]1[C@H](C)C1C[C@@](O)(NC(=O)O1)[C@H](OC)/C=C/C=C(\C)C2 [CE-047] | 325 nM | 134 nM | 327 nM | 
COc1cc2cc(c1Cl)N(C)C(=O)C[C@H](OC(=O)[C@H](C)N(C)[C@H](CCSSC)C(F)(F)F)[C@]1(C)O[C@H]1[C@H](C)[C@@H]1C[C@@](O)(NC(=O)O1)[C@H](OC)/C=C/C=C(\C)C2 (single isomer, unassigned) [CE-030] | 2.4 nM | 3.2 nM | 6.2 nM | 
COc1cc2cc(c1Cl)N(C)C(=O)C[C@H](OC(=O)[C@H](C)OCCCSSC)[C@]1(C)O[C@H]1[C@H](C)[C@@H]1C[C@@](O)(NC(=O)O1)[C@H](OC)/C=C/C=C(\C)C2 [CE-027] | 15 nM | 23 nM | 39 nM | 
COc1cc2cc(c1Cl)N(C)C(=O)C[C@H](OC(=O)[C@H]1CC[C@H](CSC3CC(=O)N(C[C@H]4CC[C@H](C(=O)ON5C(=O)CCC5=O)CC4)C3=O)CC1)[C@]1(C)O[C@H]1[C@H](C)C1C[C@@](O)(NC(=O)O1)[C@H](OC)/C=C/C=C(\C)C2 (stereo partly drawn) [CE-036] | 8.05 nM | 6.9 nM | 13.1 nM | 
COc1cc2cc(c1Cl)N(C)C(=O)C[C@H](OC(=O)[C@H](C)OCCOCCOCC(=O)ON1C(=O)CCC1=O)[C@]1(C)O[C@H]1[C@H](C)C1C[C@@](O)(NC(=O)O1)[C@H](OC)/C=C/C=C(\C)C2 [CE-045] | 133 nM | 69.2 nM | 91.2 nM | 
COc1cc2cc(c1Cl)N(C)C(=O)C[C@H](OC(=O)[C@@H](C)N(C)C(=O)CCSSC)C1(C)O[C@H]1[C@H](C)C1C[C@@](O)(NC(=O)O1)[C@H](OC)/C=C/C=C(\C)C2 (stereo partly drawn) [DM1-SMe, reference compound] |  |  |  | IC50 ([1]; Homo sapiens, BT-474, 120 h, read-out: Cytotoxicity assay IC50 BT474): 9.3 nM; IC50 ([2]; Homo sapiens, 120 h, read-out: Cytotoxicity assay IC50 MCF-Her2): 7.3 nM; IC50 ([3]; Homo sapiens, MCF7, 120 h, read-out: Cytotoxicity assay IC50 MCF7): 9.5 nM
COc1cc2cc(c1Cl)N(C)C(=O)C[C@H](OC(=O)[C@H](C)OCCOCCSC1CC(=O)N(CCC(=O)NCCOCCOCCOCCC(=O)ON3C(=O)CCC3=O)C1=O)[C@]1(C)O[C@H]1[C@H](C)C1C[C@@](O)(NC(=O)O1)[C@H](OC)/C=C/C=C(\C)C2 (stereo partly drawn) [XDCE-M-002] | 41.6 nM | 64.3 nM | 51.5 nM | 
COc1cc2cc(c1Cl)N(C)C(=O)C[C@H](OC(=O)[C@H](C)OCCOCCOCCOCCOCCOCCN1C(=O)C=CC1=O)[C@]1(C)O[C@H]1[C@H](C)C1C[C@@](O)(NC(=O)O1)[C@H](OC)/C=C/C=C(\C)C2 [CE-046] | 375 nM | 232 nM | 462 nM | 
COc1cc2cc(c1Cl)N(C)C(=O)C[C@H](OC(=O)C(COCCCSSC)OC)[C@]1(C)O[C@H]1[C@H](C)C1C[C@@](O)(NC(=O)O1)[C@H](OC)/C=C/C=C(\C)C2 (single isomer, unassigned) [CE-054-1] | 10 nM | 3.4 nM | 7 nM | 
COCC(CCC(=O)N(C)[C@H](C)C(=O)OC1CC(=O)N(C)c2cc(cc(OC)c2Cl)C/C(C)=C/C=C/[C@@H](OC)[C@@]2(O)C[C@H](OC(=O)N2)[C@@H](C)[C@@H]2O[C@@]12C)(COC)SSC (stereo partly drawn) [CE-016] | 23.4 nM | 42.7 nM | 67.7 nM | 
COCC(CCC(=O)N(C)[C@@H](C)C(=O)OC1CC(=O)N(C)c2cc(cc(OC)c2Cl)C/C(C)=C/C=C/[C@@H](OC)[C@@]2(O)C[C@H](OC(=O)N2)[C@@H](C)[C@@H]2O[C@@]12C)(COC)SSC (stereo partly drawn) [CE-017] | 14 nM | 3.1 nM | 8.9 nM | 
COc1cc2cc(c1Cl)N(C)C(=O)C[C@H](OC(=O)C(COCCCSSC)OC)[C@]1(C)O[C@H]1[C@H](C)C1C[C@@](O)(NC(=O)O1)[C@H](OC)/C=C/C=C(\C)C2 (single isomer, unassigned) [CE-055-1] |  |  |  | IC50 [1, 7]: 8 nM; IC50 [2, 8]: 3 nM; IC50 [3, 9]: 6 nM
COCC(C)(CCC(=O)N(C)[C@@H](C)C(=O)O[C@H]1CC(=O)N(C)c2cc(cc(OC)c2Cl)C/C(C)=C/C=C/[C@@H](OC)[C@@]2(O)C[C@H](OC(=O)N2)[C@@H](C)[C@@H]2O[C@@]12C)SSC (stereo partly drawn) [CE-013] |  | 5.9 nM | 4.3 nM | IC50 [1, 7]: 21 nM
COc1cc2cc(c1Cl)N(C)C(=O)C[C@H](OC(=O)C(C)(C)OCCCSC1CC(=O)N(C[C@H]3CC[C@H](C(=O)ON4C(=O)CCC4=O)CC3)C1=O)[C@]1(C)O[C@H]1[C@H](C)C1C[C@@](O)(NC(=O)O1)[C@H](OC)/C=C/C=C(\C)C2 (stereo partly drawn) [CE-049] | 138 nM | 139 nM | 207 nM | 
COCC(C)(CCC(=O)N(C)[C@H](C)C(=O)OC1CC(=O)N(C)c2cc(cc(OC)c2Cl)C/C(C)=C/C=C/[C@@H](OC)[C@@]2(O)C[C@H](OC(=O)N2)[C@@H](C)[C@@H]2O[C@@]12C)SSC (stereo partly drawn) [CE-014] | 19.6 nM | 68.8 nM | 127 nM | 
COc1cc2cc(c1Cl)N(C)C(=O)C[C@H](OC(=O)[C@H](C)OCCOCCSC1CC(=O)N(C[C@H]3CC[C@H](C(=O)ON4C(=O)CCC4=O)CC3)C1=O)[C@]1(C)O[C@H]1[C@H](C)C1C[C@@](O)(NC(=O)O1)[C@H](OC)/C=C/C=C(\C)C2 (stereo partly drawn) [CE-034] | 19.9 nM | 14.2 nM | 14.1 nM | 
COc1cc2cc(c1Cl)N(C)C(=O)C[C@H](OC(=O)[C@H](C)OCCCSC1CC(=O)N(C[C@H]3CC[C@H](C(=O)ON4C(=O)CCC4=O)CC3)C1=O)[C@]1(C)O[C@H]1[C@H](C)C1C[C@@](O)(NC(=O)O1)[C@H](OC)/C=C/C=C(\C)C2 (stereo partly drawn) [CE-051] |  |  |  | IC50 [1, 7]: 112 nM; IC50 [2, 8]: 51.4 nM; IC50 [3, 9]: 119 nM
COCC(C)(CCC(=O)N(C)[C@H](C)C(=O)OC1CC(=O)N(C)c2cc(cc(OC)c2Cl)C/C(C)=C/C=C/[C@@H](OC)[C@@]2(O)C[C@H](OC(=O)N2)[C@@H](C)[C@@H]2O[C@@]12C)SSC (stereo partly drawn) [CE-012] | 16.4 nM | 133 nM | 65.8 nM | 
COc1cc2cc(c1Cl)N(C)C(=O)C[C@H](OC(=O)[C@H](C)N(C)C(CCSC1CC(=O)N(C[C@H]3CC[C@H](C(=O)ON4C(=O)CCC4=O)CC3)C1=O)C(F)(F)F)[C@]1(C)O[C@H]1[C@H](C)C1C[C@@](O)(NC(=O)O1)[C@H](OC)/C=C/C=C(\C)C2 (stereo partly drawn) [CE-038] | 163 nM | 425 nM | 873 nM | 
COc1cc2cc(c1Cl)N(C)C(=O)C[C@H](OC(=O)[C@H](C)OCCOCCSSC)[C@]1(C)O[C@H]1[C@H](C)[C@@H]1C[C@@](O)(NC(=O)O1)[C@H](OC)/C=C/C=C(\C)C2 [CE-028] | 12 nM | 33 nM | 41 nM | 
COc1cc2cc(c1Cl)N(C)C(=O)C[C@H](OC(=O)C1CCC(CSSC)OC1)[C@]1(C)O[C@H]1[C@H](C)C1C[C@@](O)(NC(=O)O1)[C@H](OC)/C=C/C=C(\C)C2 (stereo partly drawn) [CE-053-1] | 22 nM | 13 nM | 22 nM | 

— patent US10449258B2, “Antibody drug conjugate, intermediate, preparation method, pharmaceutical composition and uses thereof” (XDCEXPLORER (SHANGHAI) CO., LTD., priority 2015, dated 2019)
